Data as given in patent US20180371158A1, “PEPTIDOMIMETIC POLYMERS AS CONTROLLED RELEASE MATRICES FOR SMALL MOLECULES, BIOLOGICALS, SYNTHETIC OR SEMI-SYNTHETIC MACROMOLECULES” (priority 2015, published 2018).

Experiment: Release study of two dyes from electrospun fiber mat immersed in PBS at 37° C., UV absorbance
Format: physicochemical
Description: 6.36 mg rhodamine B was dissolved in 20 mL PBS. 200 μL solution of this solution was taken and 1.8 mL PBS was added to achieve a 10× dilution. The solution was serially diluted from 100× to 1000×, and the corresponding absorbance of each was measured. Rhodamine B concentration vs absorbance was plotted.
The above solution was diluted to 30, 40, 50, 60, 70, 80, 90, 100, 150, 200× concentrations. UV absorbance was measured for each solution.
In a 20 mL scintillation vial, 2 cm×2 cm fiber mat of the polyester was immersed in 20 ml PBS. The vial was stored in 37° C. incubator. 2 mL PBS was removed at each time point and replaced with 2 mL fresh PBS, and UV absorbance was measured. These measurements were performed in triplicates. Dye release was calculated according to the UV absorbance standard curve.

CCN(CC)c1ccc2c(-c3ccccc3C(=O)O)c3ccc(=[N+](CC)CC)cc-3oc2c1.[Cl-] [rhodamine B, Rhodamine B]
cumulative release of dye from fiber mat (after day 55, fiber mat of p(mPhe-Keto-BocGlu) mixed with rhodamine B and coumarin dye): 17.0±3.2% | cumulative release of dye from fiber mat (after day 90, fiber mat of p(mPhe-Keto-BocGlu) mixed with rhodamine B and coumarin dye): 30.4±6.5% | cumulative release of dye from fiber mat (days 0-7, fiber mat of p(mPhe-Keto-BocGlu) mixed with rhodamine B and coumarin dye): 7.4±1.6%
